# Columns and labels:
# E. faecalis ATCC 29212 = test: MIC/MBC (CLSI broth microdilution) against E. faecalis ATCC 29212; type: cell-based; conditions: Enterococcus faecalis, ATCC29212, E. faecalis ATCC 29212
# Procedure: (§1) The minimum inhibitory concentrations (MICs) of the tested compounds and control drugs, linezolid, vancomycin, and gentamicin, were determined using the broth microdilution method according to the guidelines outlined by the Clinical and Laboratory Standards Institute (CLSI) against clinically relevant bacterial (Staphylococcus aureus, MRSA, Escherichia coli, Enterococcus faecalis and Enterococcus faecium strains. S. aureus, MRSA, E. coli, Enterococcus faecalis and Enterococcus faecium were grown aerobically overnight on tryptone soy agar (TSA) plates at 37° C. Afterwards, a bacterial solution equivalent to 0.5 McFarland standard was prepared and diluted in cation-adjusted Mueller–Hinton broth (CAMHB) (for S. aureus, MRSA, and E. coli) to achieve a bacterial concentration of about 5 × 10^5 CFU/mL. Enterococcus faecalis and Enterococcus faecium 0.5 McFarland standard solution was diluted in tryptone soy broth (TSB) to achieve a bacterial concentration of about 5 × 10^5 CFU/mL. Compounds and control drugs were added in the first row of 96-well plates and serially diluted with the corresponding media containing bacteria. Plates were then incubated as previously described. […] The minimum bactericidal concentration (MBC) was tested by spotting 4 µL from wells with no growth onto TSA plates. Plates were incubated at 37 ° C for at least 18 h before recording the MBC. The MBC was categorized as the lowest concentration that reduced bacterial growth by 99.9% [45, 46, 47].
# [1] = system: tested bacterial strains (Table 3); test: MBC versus MIC against the panel of Gram-positive and Gram-negative pathogens; type: cell-based; conditions: MBCs more than three-fold higher than MICs, strains of Table 3
# Procedure: While the focus of these new N-(1,3,4-oxadiazol-2-yl)benzamides is towards N. gonorrhoeae, we proceeded to test their activity against other Gram-positive and Gram-negative pathogens. Intriguingly, HSGN-235, HSGN-237, and HSGN-238 had potent activity against the tested Gram-positive bacterial pathogens. For instance, all three compounds had potent activity against the staphylococcal strains, with MICs ranging from 0.25 to 1 µg/mL (Table 3). Furthermore, HSGN-235, HSGN-237, and HSGN-238 maintained potent activity against clinically relevant Gram-positive bacterial pathogens such as vancomycin-resistant enterococci (VRE) and Listeria monocytogenes (Table 3). Additionally, we moved to test if HSGN-235, HSGN-237, and HSGN-238 were active against other Gram-negative bacterial pathogens. […] This lack of activity against Gram-negative bacteria appears to be due to HSGN-235, HSGN-237, and HSGN-238 being a substrate for efflux.
# The minimum inhibitory concentrations (MICs) of the tested compounds and control drugs, linezolid, vancomycin, and gentamicin, were determined using the broth microdilution method according to the guidelines outlined by the Clinical and Laboratory Standards Institute (CLSI) against clinically relevant bacterial (Staphylococcus aureus, MRSA, Escherichia coli, Enterococcus faecalis and Enterococcus faecium strains. S. aureus, MRSA, E. coli, Enterococcus faecalis and Enterococcus faecium were grown aerobically overnight on tryptone soy agar (TSA) plates at 37° C. Afterwards, a bacterial solution equivalent to 0.5 McFarland standard was prepared and diluted in cation-adjusted Mueller–Hinton broth (CAMHB) (for S. aureus, MRSA, and E. coli) to achieve a bacterial concentration of about 5 × 10^5 CFU/mL. Enterococcus faecalis and Enterococcus faecium 0.5 McFarland standard solution was diluted in tryptone soy broth (TSB) to achieve a bacterial concentration of about 5 × 10^5 CFU/mL. Compounds and control drugs were added in the first row of 96-well plates and serially diluted with the corresponding media containing bacteria. […]
# S. aureus ATCC 25923 = test: MIC/MBC (CLSI broth microdilution) against S. aureus ATCC 25923; type: cell-based; conditions: Staphylococcus aureus, ATCC25923, S. aureus ATCC 25923
# Procedure: as §1
# [2] = system: L. monocytogenes ATCC 19115; test: MIC/MBC (CLSI broth microdilution) against L. monocytogenes ATCC 19115; type: cell-based; conditions: Listeria monocytogenes, ATCC19115, L. monocytogenes ATCC 19115
# MRSA USA300 = test: MIC/MBC (CLSI broth microdilution) against MRSA USA300; type: cell-based, methicillin-resistant Staphylococcus aureus; conditions: Staphylococcus aureus, MRSA USA300
# Procedure: as §1
# [3] = system: N. gonorrhoeae strain 181; test: MIC by broth microdilution against N. gonorrhoeae strain 181; type: cell-based, Neisseria gonorrhoeae; conditions: Neisseria gonorrhoeae; N. gonorrhoeae strain 181; read-out: MIC
# Procedure: (§2) Briefly, bacteria were grown overnight on chocolate agar II at 37° C in the presence of 5% CO2. Afterwards, a bacterial suspension equivalent to 1.0 McFarland standard was prepared and diluted in brucella broth supplemented with yeast extract, neopeptone, hematin, pyridoxal, and NAD. Test agents were added in the first row of the 96-well plates and serially diluted along the plates. Plates were then incubated at 37° C in the presence of 5% CO2 for 24 h. […] Plates were then incubated at 37 ° C in the presence of 5% CO2 for 24 h. The MBC was categorized as the lowest concentration that reduced bacterial growth by 99.9% [45, 46, 47].
# N. gonorrhoeae 197 = test: MIC/MBC against N. gonorrhoeae clinical isolate 197; type: cell-based; conditions: Neisseria gonorrhoeae
# Procedure: as §2
smiles,measurement,setting,value
"O=C(Nc1nnc(-c2ccc(Cl)s2)o1)c1ccc(OC(F)(F)F)cc1 [HSGN-238, N-(5-(5-Chlorothiophen-2-yl)-1,3,4-oxadiazol-2-yl)-4-(trifluoromethoxy)benzamide]",MBC,E. faecalis ATCC 29212; read-out: MBC,32 µg/mL
same,MIC,E. faecalis ATCC 29212; read-out: MIC,1 µg/mL
same,type of activity from MBC versus MIC,[1],bacteriostatic agents
same,MBC,S. aureus ATCC 25923; read-out: MBC,> 64 µg/mL
same,MIC,S. aureus ATCC 25923; read-out: MIC,0.25 µg/mL
same,MBC,[2]; read-out: MBC,32 µg/mL
same,MIC,[2]; read-out: MIC,0.5 µg/mL
same,MBC,MRSA USA300; read-out: MBC,16 µg/mL
same,MIC,MRSA USA300; read-out: MIC,0.25 µg/mL
same,MIC,[3],0.125 µg/mL
same,MBC,N. gonorrhoeae 197,0.125 µg/mL
same,MIC,N. gonorrhoeae 197,0.125 µg/mL

# Source: PMC7957578, “N-(1,3,4-Oxadiazol-2-yl)Benzamides as Antibacterial Agents against Neisseria gonorrhoeae” (International Journal of Molecular Sciences, 2021)
